Data set [1] deals with T1, COX-1 (Ovis aries, UniProt P05979).
T1 construct: purchased Cayman chemical, MI, USA
T1 sequence (P05979 25-600): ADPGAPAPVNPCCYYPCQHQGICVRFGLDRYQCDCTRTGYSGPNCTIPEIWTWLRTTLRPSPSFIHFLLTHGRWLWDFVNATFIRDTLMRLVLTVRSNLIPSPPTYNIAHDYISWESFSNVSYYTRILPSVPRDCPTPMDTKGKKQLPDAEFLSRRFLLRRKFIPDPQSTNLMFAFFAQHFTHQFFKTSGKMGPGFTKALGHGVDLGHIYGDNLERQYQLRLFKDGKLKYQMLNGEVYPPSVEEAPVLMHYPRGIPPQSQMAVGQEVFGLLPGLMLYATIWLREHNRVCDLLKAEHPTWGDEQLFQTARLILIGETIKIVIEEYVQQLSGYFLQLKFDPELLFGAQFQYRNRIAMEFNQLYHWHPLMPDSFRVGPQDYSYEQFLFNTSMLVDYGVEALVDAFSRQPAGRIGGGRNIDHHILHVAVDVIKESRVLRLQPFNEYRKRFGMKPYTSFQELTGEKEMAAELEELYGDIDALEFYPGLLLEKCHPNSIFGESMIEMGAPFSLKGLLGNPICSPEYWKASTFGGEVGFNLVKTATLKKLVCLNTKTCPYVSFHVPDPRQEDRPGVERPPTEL
The data set can be described thus: biochemical. Particulars: ovine COX-1/COX-2 assay kit; mean of two determinations, deviation < 10% of mean. Here is the method:
(§1) A group of 1,4-dihydropyridine derivativespossessing a MeSO2 at the para-position of the C-4 phenyl ring, alkyl groups(R1) at the C-2 position and alkyloxycarbonyl groups(COOR2) at the C-3 position were prepared and evaluated for their ability to inhibit COX-1 and COX-2 using chemiluminescent kit (Cayman chemical, MI, USA) according to our previously reported method ([14]).

Data set [2] addresses T2, COX-2 (Ovis aries, UniProt P79208).
T2 construct: purchased Cayman chemical, MI, USA
T2 sequence (P79208 17-603): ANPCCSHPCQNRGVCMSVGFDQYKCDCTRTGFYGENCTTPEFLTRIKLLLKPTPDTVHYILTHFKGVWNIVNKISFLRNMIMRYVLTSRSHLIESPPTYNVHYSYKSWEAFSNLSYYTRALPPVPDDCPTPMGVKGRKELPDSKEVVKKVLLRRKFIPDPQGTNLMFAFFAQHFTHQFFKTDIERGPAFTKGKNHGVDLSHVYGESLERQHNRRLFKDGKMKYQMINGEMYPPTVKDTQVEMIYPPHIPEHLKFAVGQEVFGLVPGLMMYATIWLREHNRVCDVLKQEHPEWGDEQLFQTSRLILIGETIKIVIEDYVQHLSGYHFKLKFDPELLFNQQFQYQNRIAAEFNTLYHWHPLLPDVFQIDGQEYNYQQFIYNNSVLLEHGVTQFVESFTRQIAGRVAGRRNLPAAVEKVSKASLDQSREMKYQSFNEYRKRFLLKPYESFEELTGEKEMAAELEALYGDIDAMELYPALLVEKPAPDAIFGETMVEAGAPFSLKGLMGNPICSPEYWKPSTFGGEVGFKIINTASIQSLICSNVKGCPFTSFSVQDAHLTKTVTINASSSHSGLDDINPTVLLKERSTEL
The experiment in a line: biochemical. The format is biochemical. The note with it: for COX-2 S.I. (in-vitro COX-2 selectivity index): COX-1 IC50/COX-2 IC50; for COX-2 inhibitory activity relative to compound 5e (in words): larger groups (propyl, phenyl) at C-2 position of compound 5e; for pIC50: ovine COX-1/COX-2 assay kit, mean of two determinations, deviation < 10% of mean. Here is the method:
as §1

pIC50: −log10 of the molar value. Bounds are passed on as bounds.

For orientation: melting point means the temperature of the solid-liquid transition. As usually defined, the pIC50 is the negative decadic logarithm of the IC50, by convention in mol/L. In the case of `CCCC1=C(C(=O)OCC)C(c2ccc(S(C)(=O)=O)cc2)C2=C(CC(C)(C)CC2=O)N1` (stereo not drawn) [Compound 5f, Ethyl-1,4,5,6,7,8-hexahydro-7,7-dimethyl-4-(4-(methylsulfonyl)phenyl)-5-oxo-2-propylquinoline-3-carboxylate], the melting point is 163 to 164 °C. The pIC50 in data set [1] was 4.60. Moreover, in data set [2], the “COX-2 S.I. (in-vitro COX-2 selectivity index)” value is recorded as 18.2, the “COX-2 inhibitory activity relative to compound 5e (in words)” value is listed as “significant loss of activities” and the pIC50 is 5.86.
In turn, `CCOC(=O)C1=C(c2ccccc2)NC2=C(C(=O)CC(C)(C)C2)C1c1ccc(S(C)(=O)=O)cc1` (stereo not drawn) [Compound 5g, Ethyl-1,4,5,6,7,8-hexahydro-7,7-dimethyl-4-(4-(methylsulfonyl)phenyl)-5-oxo-2-phenylquinoline-3-carboxylate] returned a melting point of 187.9 to 189 °C. Further, the pIC50 in data set [1] was 4.34. For the same compound, in data set [2], the “COX-2 inhibitory activity relative to compound 5e (in words)” value is reported as “significant loss of activities” and the pIC50 is less than 4.00.
The compound `COC(=O)C1=C(N)NC2=C(C(=O)CC(C)(C)C2)C1c1ccc(S(C)(=O)=O)cc1` (stereo not drawn) [Compound 5b, Methyl-2-amino-1,4,5,6,7,8-hexahydro-7,7-dimethyl-4-(4-(methylsulfonyl)phenyl)-5-oxo quinolone-3-carboxylate] showed a pIC50 in data set [1] of 4.51. For the same compound, in data set [2], the “COX-2 S.I. (in-vitro COX-2 selectivity index)” value was 70.4 and the pIC50 was 6.36.
As for `COC(=O)C1=C(C(C)C)NC2=C(C(=O)CC(C)(C)C2)C1c1ccc(S(C)(=O)=O)cc1` (stereo not drawn) [Compound 5d], the values for the pIC50 in data set [1] and in data set [2] were 4.56 and 6.21, respectively.
Turning to `CC1=C(C(=O)OC(C)(C)C)C(c2ccc(S(C)(=O)=O)cc2)C2=C(CC(C)(C)CC2=O)N1` (stereo not drawn) [Compound 5h, t-Butyl-1,4,5,6,7,8-hexahydro-2,7,7-trimethyl-4-(4-methanesulfonyl-phenyl)-5-oxo-quinoline-3-carboxylate], the melting point lay within 163 to 164 °C. In data set [1], this compound gave a pIC50 of 4.59. In data set [2], the “COX-2 S.I. (in-vitro COX-2 selectivity index)” value is 63.7 and the pIC50 is 6.40.
The matching figures for `CCC1=C(C(=O)OC)C(c2ccc(S(C)(=O)=O)cc2)C2=C(CC(C)(C)CC2=O)N1` (stereo not drawn) [Compound 5c, Methyl-2-ethyl-1,4,5,6,7,8-hexahydro-7,7-dimethyl-4-(4-(methylsulfonyl)phenyl)-5-oxoquinoline-3-carboxylate]: 186.5 to 188 °C, 4.51, 52.1 and 6.23.
The matching figures for `CCOC(=O)C1=C(C)NC2=C(C(=O)CC(C)(C)C2)C1c1ccc(S(C)(=O)=O)cc1` (stereo not drawn) [Compound 5e, Ethyl-1,4,5,6,7,8-hexahydro-2,7,7-trimethyl-4-(4-(methylsulfonyl)phenyl)-5-oxoquinoline-3-carboxylate]: 180.7 to 182.3 °C, 4.56, 92.0 and 6.52.
The matching figures for `COC(=O)C1=C(C)NC2=C(C(=O)CC(C)(C)C2)C1c1ccc(S(C)(=O)=O)cc1` (stereo not drawn) [Compound 5a, Methyl-1,4,5,6,7,8-hexahydro-2,7,7-trimethyl-4-(4-(methylsulfonyl)phenyl)-5-oxoquinoline-3-carboxylate]: 244 to 245 °C, 4.52, 62.9 and 6.32.
In the case of `CC1=C(C(=O)OCc2ccccc2)C(c2ccc(S(C)(=O)=O)cc2)C2=C(CC(C)(C)CC2=O)N1` (stereo not drawn) [Compound 5i], the melting point was 136.9 to 138.9 °C. In addition, the negative-log IC50 (pIC50) in data set [1] was 4.64. Besides, the pIC50 in data set [2] is less than 4.00.

Values taken from publication PMC4673936, “Design, Synthesis and Biological Evaluation of New 1, 4-Dihydropyridine (DHP) Derivatives as Selective Cyclooxygenase-2 Inhibitors” (Iranian Journal of Pharmaceutical Research : IJPR, 2015).
